Measured values taken from patent US6849644B2, “Isoquinoline derivatives useful in the treatment of CNS disorders” (SmithKline Beecham p.l.c., priority 2000, dated 2005).
Where a name gives a salt, the structure may show the parent alone.

Biological target: T1, human cloned 5-HT6 receptors (Homo sapiens, UniProt P50406)
T1 construct: expressed in transfected cells
Assay: 5-HT6 receptor binding affinity (procedures outlined in WO 98/27081)
Excerpt: Compounds can be tested following the procedures outlined in WO 98/27081.

T1 sequence (P50406 whole entry): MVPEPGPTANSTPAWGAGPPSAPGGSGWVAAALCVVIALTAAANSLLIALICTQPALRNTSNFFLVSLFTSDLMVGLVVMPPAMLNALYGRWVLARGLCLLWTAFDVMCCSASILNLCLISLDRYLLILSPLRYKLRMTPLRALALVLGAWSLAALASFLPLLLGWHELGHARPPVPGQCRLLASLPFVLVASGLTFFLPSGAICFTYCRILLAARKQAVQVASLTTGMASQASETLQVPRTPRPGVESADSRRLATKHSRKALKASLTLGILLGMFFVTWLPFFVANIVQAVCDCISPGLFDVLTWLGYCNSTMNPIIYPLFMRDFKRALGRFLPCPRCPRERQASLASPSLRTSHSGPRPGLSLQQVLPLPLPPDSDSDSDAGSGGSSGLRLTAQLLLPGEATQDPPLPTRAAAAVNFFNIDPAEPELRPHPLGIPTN

SMILES | Ki [nM]
O=S(=O)(c1ccc2c(c1)CNCC2)n1ccc2ccccc21 [Example E1, 7-(Indole-1-sulfonyl)-1,2,3,4-tetrahydro-isoquinoline Hydrochloride] | 1.26 to 6.31
O=S(=O)(c1ccc2c(c1)CNCC2)n1c2c(c3ccccc31)CCCC2 [Example E9, 9-(1,2,3,4-Tetrahydro-isoquinoline-7-sulfonyl)-2,3,4,9-tetrahydro-1H-carbazole] | 1.26 to 6.31
O=S(=O)(c1ccc2c(c1)CNCC2)n1ccc2ccc(Cl)cc21 [Example E16, 7-(6-Chloro-indole-1-sulfonyl)-1,2,3,4-tetrahydro-isoquinoline] | 1.26 to 6.31
COc1ccc2ccn(S(=O)(=O)c3ccc4c(c3)CNCC4)c2c1 [Example E19, 7-(6-Methoxy-indole-1-sulfonyl)-1,2,3,4-tetrahydro-isoquinoline] | 1.26 to 6.31
Cc1ccc2ccn(S(=O)(=O)c3ccc4c(c3)CNCC4)c2c1 [Example E20, 7-(6-Methyl-indole-1-sulfonyl)-1,2,3,4-tetrahydro-isoquinoline] | 1.26 to 6.31
O=S(=O)(c1ccc2c(c1)CNCC2)n1ccc2ccc(F)cc21 [Example E22, 7-(6-Fluoro-indole-1-sulfonyl)-1,2,3,4-tetrahydro-isoquinoline] | 1.26 to 6.31
O=S(=O)(c1ccc2c(c1)CNCC2)n1ccc2cc(F)c(F)cc21 [Example E23, 7-(5,6-Difluoro-indole-1-sulfonyl)-1,2,3,4-tetrahydro-isoquinoline] | 1.26 to 6.31

Continued, values first:

Ki [nM] | SMILES
1.26 to 6.31 | Cc1cn(S(=O)(=O)c2ccc3c(c2)CNCC3)c2ccccc12 [Example E10, 7-(3-Methyl-indole-1-sulfonyl)-1,2,3,4-tetrahydro-isoquinoline]
1.26 to 6.31 | O=S(=O)(c1ccc2c(c1)CNCC2)n1c(-c2ccccc2)cc2cc(F)ccc21 [Example E13, 7-(5-Fluoro-2-phenyl-indole-1-sulfonyl)-1,2,3,4-tetrahydro-isoquinoline]
1.26 to 6.31 | O=S(=O)(c1ccc2c(c1)CNCC2)n1ccc2c(Cl)cccc21 [Example E17, 7-(4-Chloro-indole-1-sulfonyl)-1,2,3,4-tetrahydro-isoquinoline]
1.26 to 6.31 | Cc1cccc2c1ccn2S(=O)(=O)c1ccc2c(c1)CNCC2 [Example E21, 7-(4-Methyl-indole-1-sulfonyl)-1,2,3,4-tetrahydro-isoquinoline]
1.26 to 6.31 | O=S(=O)(c1ccc2c(c1)CNCC2)n1ccc2ccc(C(F)(F)F)cc21 [Example E24, 7-(6-Trifluoromethyl-indole-1-sulfonyl)-1,2,3,4-tetrahydro-isoquinoline]
1.26 to 6.31 | O=S(=O)(c1ccc2c(c1)CNCC2)n1c2ccccc2c2ccccc21 [Example E26, 9-(1,2,3,4-tetrahydro-isoquinoline-7-sulfonyl)-9H-carbazole]
1.26 to 6.31 | O=S(=O)(c1ccc2c(c1)CNCC2)n1cc(-c2ccccc2)c2ccccc21 [Example E35, 7-(3-Phenyl-indole-1-sulfonyl)-1,2,3,4-tetrahydro-isoquinoline Hydrochloride]
